Reference: US9085523B2, “Compound for treating cartilage disorders” (ONO PHARMACEUTICAL CO., LTD., priority 2011, dated 2015)

Key:
[1] = In vitro hydrolysis test in rabbit plasma (release of Compound A, LC/MS/MS); format: in vitro ADME; conditions: 37° C.
Method: The particles were retained inside articular cavity after intra-articular administration. The sustained period of active form inside articular cavity changes depending on hydrolysis period of a test compound. Therefore, the hydrolysis period of a test compound was evaluated and set as an indicator of sustained release of the active form.
Various test compounds were dissolved in dimethylsulfoxide, so that the concentration of the solution calculated in Compound A becomes 0.5 mg/mL. The solution (10 μL) was added to 0.5 mL of rabbit plasma and incubated at 37° C. in water bath. 50 μL of the solution was sampled 0, 1, 3, 8, 24, 30, 48 and 72 minutes after the incubation and the concentration of Compound A in sample was determined.
After 50 μL of the solution was sampled in a polyethylene tube, 10 μL of deuterium-labeled Compound A as internal standard and 2 mL of acetonitrile were added, followed by stirring. After centrifugation, 100 μL of the supernatant was sampled in a polyethylene tube and 900 μL of acetonitrile was added thereto, followed by stirring. After filtration, the supernatant was measured by LC/MS/MS and the 50% hydrolysis time was calculated.

[2] = tested on: blood pressure and heart rate of normal rabbit; assay: Measurement of blood pressure and heart rate of normal rabbit; format: in vivo; conditions: for effect on circulatory system: at the dose exhibiting efficacy on the knee cartilage defect model, comparison of blood concentrations of Compound A
Method: Compound A acts on circulatory system and affects on blood pressure and heart rate.
Blood pressure and heart rate were measured by the following method using female Japanese white domestic rabbit. An animal was retained in dorsal position on an operation table on a measurement day. After the hair of right femur area was removed, a local anesthetic was given by administering an appropriate amount of lidocaine injection. The skin and muscle was incised to expose femur artery and vein, and a catheter (manufactured by Atom Medical Corporation) filled with saline containing heparin (about 10 units/mL) beforehand was placed in the right femur artery.
After retaining the rabbit in a rabbit blood sampling box (manufactured by NATSUME SEISAKUSHO CO LTD.), the catheter was connected to a pressure transducer (DX-100: manufactured by NIHON KOHDEN CORPORATION) to measure blood pressure with a strain pressure amplifier (AP-641G: manufactured by NIHON KOHDEN CORPORATION) and heart rate with an instantaneous heart rate counter (AT-601G: manufactured by NIHON KOHDEN CORPORATION). Blood pressure and waveform of heartbeat were recorded by a recorder (WR3701: manufactured by Graphtech Corporation). Measurement was conducted under awake condition after confirming blood pressure and heart rate became stable.
(§1) Compound A was administered cumulatively through right auricular vein with a syringe pump (manufactured by TERUMO CORPORATION) at 0 (medium: saline), 100, 300 and 1000 ng/kg/min (administration volume: 1 mL/kg/h). Each dose was administered for more than 60 minutes and blood was collected from left auricular vein 60 minutes after the administration started. Blood was collected with a 1 mL syringe with a needle of […] treated with heparin (about 10 units/mL) beforehand. The collected blood was centrifuged at 4° C. 13,500 g for 5 minutes and the obtained supernatant (plasma) was stored at […] to be provided for the measurement of blood concentration of Compound A.
Increase or decrease ratio of mean blood pressure and heart rate at 5, 10, 15, 20, 30, 40, 50 and 60 minutes after the administration started were calculated based on the values of pre-administration of each subject. Maximum change of blood pressure and heart rate between before and after the administration of Test Compounds was evaluated.

[3] = tested on: knee cartilage defect model; assay: Evaluation of cartilage tissue score in knee cartilage defect model; format: in vivo; conditions: rabbit, intra-articular, bi-weekly, 6 times; vs vehicle, Steel test
Method: Knee cartilage defect model was prepared by the following method. Female Japanese white domestic rabbit (2.5-3.5 kg) was anesthetized by the administration of sodium pentobarbital (30 mg/kg) through ear vein. The hair around knee articulations of both hind legs was removed and disinfected with iodine tincture. After the incision of the skin of an inert right hind leg, the boundary between patella ligament and articular capsule was incised in dorsal position. Patella was dislocated outward to expose trochlea femoris largely and medial condyle of femur was drilled with a dental drill to prepare small hole (diameter: 4 mm, depth: about 2 mm). The surgical incision was sutured and the surgical site was disinfected with iodine tincture. Femur of a left knee or both knees of pseudo-operation group was only exposed by the same operation without preparing small hole. To avoid infection disease, 100,000 units of benzylpenicilline procaine/125 mg titers of dihydrostreptomycin sulfate/I mg of procaine hydrochloride per rabbit was administered in gluteal muscle. A test compound (12-200 μg/knee, calculated in Compound A which is active form of test compounds) and its medium (5% glucose solution containing 0.05% Tween 80) were administered inside articular cavity of right knee of rabbit at bi-weekly intervals, 6 times for total, and from a week after operation. […]

[4] = Blood concentration of Compound A during continuous intravenous administration to normal rabbit; format: in vivo; conditions: female, Japanese white, plasma, 60 minutes after administration started
Method: as §1

[5] = Particle forming: mean particle diameter (Dv) and particle distribution (PDI) of suspensions by laser diffraction; format: physicochemical; conditions: 5% glucose solution containing 0.05% Tween 80
Method: In the specification, the mean particle diameter means the mean particle diameter measured by a laser diffraction/scattering method. In the specification, the mean particle diameter is measured by a laser diffraction grain size distribution measuring apparatus (SALD-2100: manufactured by Shimadzu Corp.). In terms of mean particle diameter, various values such as volume mean diameter, surface mean diameter, median diameter and the like are used as an indicator of mean particle diameter, and in the specification, volume mean diameter (Dv) is used as a mean particle diameter.
In addition, a particle to be injected inside articular cavity is preferably a particle with a mean particle diameter with less variance and uniform size. The variance of mean particle diameter can be evaluated by measuring particle size distribution and the particle size distribution can be measured by a laser diffraction grain size distribution measuring apparatus as well as a mean particle diameter. […] In the description, PDI value and Dn was measured by a laser diffraction grain size distribution measuring apparatus (SALD-2100: manufactured by Shimadzu Corp.).
To distilled water, Compound 4-11 dissolved in ethanol was added slowly, 5% glucose solution and 5% glucose solution containing 0.05% Tween 80 with stirring. […] The quantity of each component is as follows, […]

[6] = rabbit, intravenous, 1000 ng/kg/min

CCCCCCCCCCCCCCCOc1cccc(C(=O)OCCOC(=O)CCC/C=C\C[C@@H]2[C@@H](/C=C/C[C@H](O)C3(CC)CCC3)[C@H](O)C[C@H]2Cl)c1 [Compound 4-1, 2-{[(5Z)-7-{(1R,2R,3R,5R)-5-chloro-2-[(1E,4S)-4-(1-ethylcyclobutyl)-4-hydroxy-1-buten-1-yl]-3-hydroxycyclopentyl}-5-heptenoyl]oxy}ethyl 3-(pentadecyloxy)benzoate]
Time of 50% hydrolysis [1]: 10.6 days
effect on circulatory system [2]: hardly affects on circulatory system

CCCCCCCCCCCCCCCOc1ccc(C(=O)OCCOC(=O)CCC/C=C\C[C@@H]2[C@@H](/C=C/C[C@H](O)C3(CC)CCC3)[C@H](O)C[C@H]2Cl)cc1 [Compound 4-11, 2-{[(5Z)-7-{(1R,2R,3R,5R)-5-chloro-2-[(1E,4S)-4-(1-ethylcyclobutyl)-4-hydroxy-1-buten-1-yl]-3-hydroxycyclopentyl}-5-heptenoyl]oxy}ethyl 4-(pentadecyloxy)benzoate]
Time of 50% hydrolysis [1]: 7.3 days
effect on circulatory system [2]: hardly affects on circulatory system

CCCCCCCCCCCCCCCCc1ccc(C(=O)OCCCOC(=O)CCC/C=C\C[C@@H]2[C@@H](/C=C/C[C@H](O)C3(CC)CCC3)[C@H](O)C[C@H]2Cl)cc1 [Compound 6-4, 3-{[(5Z)-7-{(1R,2R,3R,5R)-5-chloro-2-[(1E,4S)-4-(1-ethylcyclobutyl)-4-hydroxy-1-buten-1-yl]-3-hydroxycyclopentyl}-5-heptenoyl]oxy}propyl 4-hexadecylbenzoate]
Time of 50% hydrolysis [1]: 7.8 days

CCCCCCCCCCCCCCCC#CCOC(=O)CCC/C=C\C[C@@H]1[C@@H](/C=C/C[C@H](O)C2(CC)CCC2)[C@H](O)C[C@H]1Cl [Compound 19, 2-octadecyn-1-yl(5Z)-7-{(1R,2R,3R,5R)-5-chloro-2-[(1E,4S)-4-(1-ethylcyclobutyl), 4-hydroxy-1-buten-1-yl]-3-hydroxycyclopentyl}-5-heptenoate]
Time of 50% hydrolysis [1]: 26.2 days
cartilage tissue score [3]: significantly improved
effect on circulatory system [2]: hardly affects on circulatory system

CCC(CCCCl)[C@@H](O)C/C=C/[C@@H]1[C@@H](C/C=C\CCCC(=O)O)[C@H](Cl)C[C@H]1O (stereo partly drawn) [Compound A, (5Z)-7-{(1R,2R,3R,5R)-5-chloro-2-[(1E,4S)-4-(1-ethylchlorobutyl)-4-hydroxy-1-butenyl]-3-hydroxycyclopentyl}-5-heptenoic acid]
blood concentration that does not affect blood pressure ([2]; rabbit): ≤ 5.9 ng/mL
blood concentration that does not affect heart rate ([2]; rabbit): ≤ 2.0 ng/mL
increase of heart rate at maximum ([2]; rabbit, intravenous, 100 ng/kg/min): about 5%
increase of heart rate ([2]; rabbit, intravenous, 300 ng/kg/min): 15%
decrease of blood pressure [2, 6]: 16 mmHg
increase of heart rate [2, 6]: 20%
decrease of blood pressure at maximum ([2]; rabbit, intravenous, 100 and 300 ng/kg/min): ≤ 5 mmHg
concentration at 60 min ([4]; continuous intravenous 100 ng/kg/min): 2 ng/mL
concentration at 60 min ([4]; continuous intravenous 300 ng/kg/min): 5.9 ng/mL
concentration at 60 min ([4]; continuous intravenous 1000 ng/kg/min): 24.3 ng/mL

CCCCCCCCCCCCCCCCCC[N+](C)(C)CCOC(=O)CCC/C=C\C[C@@H]1[C@@H](/C=C/C[C@H](O)C2(CC)CCC2)[C@H](O)C[C@H]1Cl.[Br-] [Reference Example 3, N-(2-{[(5Z)-7-{(1R,2R,3R,5R)-5-chloro-2-[(1E,4S)-4-(1-ethylcyclobutyl)-4-hydroxy-1-buten-1-yl]-3-hydroxycyclopentyl}-5-heptenoyl]oxy}ethyl)-N,N-di methyl-octadecyl ammonium bromide]
particle forming in dispersion medium [5]: did not form a particle
